# Reference: article PMC6095874, “Discovery of cationic nonribosomal peptides as Gram-negative antibiotics through global genome mining” (Nature Communications, 2018)
# Like-named read-outs stand apart in the source and are kept apart here. Where a SMILES comes first, the peptide text is derived from it. Bridges are numbered along the chain shown (N, C = ends). [ ]: non-standard residue; d: D form. The star is where a group is joined. ξ: configuration not given here. Hexanoyl(4ξ-Me) = CCC(C)CCC(=O)*; dOrn = NCCC[C@@H](N)C(=O)O; Orn = NCCC[C@H](N)C(=O)O
# Assays:
# rabbit erythrocytes = conditions: concentrations up to 128 μg mL^−1, 2% (v/v) rabbit erythrocytes in PBS, 1 h, 37 °C, absorbance 570 nm, vs 10% Triton X-100
# Method: Hemolytic activity was determined with red blood cells freshly isolated from healthy rabbits. […] The cells were incubated for 1 h at 37 °C and centrifuged for 5 min at 10,000 × g. The supernatant was transferred to a 96-well plate and the absorbance was measured at a wavelength of 570 nm with a Thermo Scientific Multiskan FC multiplate photometer. The absorbance relative to the positive control, which was treated with 10% Triton X-100, was defined as the percentage of hemolysis.
# E. coli TOP10 cells [1] = experiment: Time-kill assay; type: cell-based, Escherichia coli
# Method: An overnight culture of E. coli TOP10 cells was diluted 1:10,000 in MHB and incubated at 37 °C with agitation at 180 rpm for 2 h (early exponential). The bacteria were then challenged with brevicidine (20 μg mL^−1), laterocidine (20 μg mL^−1), or polymyxin B (10 μg mL^−1) at ten times the MIC at room temperature without shaking. An untreated sample of cells was used as a negative control. At intervals, 10 μL aliquots were removed, centrifuged at 10,000 × g for 1 min and resuspended in 1.0 mL of sterile PBS. Tenfold serially diluted suspensions were plated on MHB agar plates and incubated at 37 °C overnight. Colonies were counted and the number of c.f.u. per mL was calculated. For analysis of lysis, 300 μL of culture (OD600 = 1.0) were treated with antibiotics at ten times the MIC for 24 h. Experiments were performed in triplicate.
# E. cloacae NRRL-B-425 = type: cell-based, Enterobacter cloacae; conditions: NRRL-B-425, 24 h
# Method: (§1) MIC was determined by broth microdilution according to CLSI guidelines. The test medium for most species was Mueller–Hinton broth (MHB). Bacteria were grown overnight to early stationary phase and adjusted in MHB to 5.0 × 10^5 c.f.u. mL^−1 in the wells of 96-well microtiter plates (Falcon® 96-Well Flat-Bottom Microplate, Tissue Culture-Treated), mixed with varying concentrations of test compounds and incubated at 37 °C for 24 h. Cell growth was evaluated by measuring the optical density at 595 nm (Thermo Scientific Multiskan FC multiplate photometer) (Waltham, MA, USA), and the MIC was defined as the lowest compound concentration at which no bacterial growth was observed. MHBs containing 10% fetal bovine serum (Gibco), 21 mM MgCl, or 1.0 mg mL^−1 LPS (lipopolysaccharides from E. coli O55:B5, Sigma-Aldrich) was used to test their inhibitory effects.
# Saccharomyces cerevisiae = type: cell-based; conditions: 24 h
# E. coli ATCC 25922 [2] = conditions: 10^8 c.f.u. plated on Mueller–Hinton agar at four times the MIC, 48 h, 37 °C
# Method: (§2) E. coli ATCC 25922 was inoculated into MHB overnight at 37 °C with continuous shaking. Cells were diluted 10,000 times in MHB to about 1 × 10^6 c.f.u. mL^−1. Ten µL aliquots were drawn to a 96-well plate containing 90 µL of serially diluted brevicidine, laterocidine, and ciprofloxacin, at final concentrations of 0.5×, 1×, 1.5×, 2×, and 4× MIC. […] Plates with bacteria were incubated at 37 °C without shaking. […] This process was repeated for 30 days, and the final MIC was confirmed by the same antibacterial assay as the one described above. The experiment was performed in quadruplicate, and on each day, the sample that developed the highest resistance was measured to plot the curve. For single-step resistance, E. coli ATCC 25922 cells at 10^8 c.f.u. were plated onto Mueller–Hinton agar containing 4× MIC of brevicidine.
# E. coli ATCC 25922 [3] = experiment: Resistance acquisition during serial passaging; type: cell-based, Escherichia coli; conditions: subinhibitory concentrations, 30-day period, MHB, 37 °C, quadruplicate
# Method: as §2
# Candida albicans = type: cell-based; conditions: 24 h
# E. coli TOP10 cells [4] = experiment: Bacterial growth kinetics; type: cell-based, Escherichia coli; conditions: OD600 of cells exposed to antibiotics (Fig. 4: two times the MIC)
# Method: A single fresh colony of E. coli TOP10 cells was inoculated into MHB (5 mL) and grown with shaking at 225 rpm overnight. The bacteria were diluted to 1 × 10^5 c.f.u. mL^−1 in fresh MHB, grown […] to early log-phase (OD600 = 0.15) and treated with the antibiotics of interest in the wells of a 96-well plate. Final antibiotic concentrations varied from one to eight times the MIC. The plate was then incubated at 30 °C overnight, with OD600 measurements taken every 30 s.
# [5] = test system: Escherichia coli ATCC 25922; experiment: microbe, parasite or virus in culture; type: cell-based; conditions: Supplementary Table 1; Ec = Escherichia coli ATCC 25922
# Method: as §1
# [6] = test system: Pseudomonas aeruginosa PAO1; type: cell-based; conditions: Supplementary Table 1; Pa = Pseudomonas aeruginosa PAO1
# Method: as §1
# [7] = test system: Staphylococcus aureus (MRSA); type: cell-based; conditions: 24 h
# Method: as §1
# Gram-negative bacteria = type: cell-based
# Method: as §1
smiles,measurement,setting,value
"CCC(C)CCC(=O)N[C@H](CC(N)=O)C(=O)N[C@H](Cc1ccc(O)cc1)C(=O)N[C@H](Cc1c[nH]c2ccccc12)C(=O)N[C@H](CCCN)C(=O)N[C@@H](CCCN)C(=O)NCC(=O)N[C@H](CCCN)C(=O)N[C@@H](Cc1c[nH]c2ccccc12)C(=O)N[C@@H]1C(=O)N[C@@H]([C@@H](C)CC)C(=O)NCC(=O)N[C@@H](CO)C(=O)O[C@@H]1C (stereo partly drawn) [Compound 1, brevicidine] ({Hexanoyl(4ξ-Me)}-[dN][dY][dW][dOrn][Orn]G[dOrn]WTIGS; ester 9-C)",lysis of erythrocytes (hemolysis),rabbit erythrocytes,neither caused the lysis of erythrocytes
same,bactericidal action against E. coli,"E. coli TOP10 cells [1]; as revealed by growth kinetics, time-kill assay and lysis assay",bactericidal
same,cell viability in time-kill assay,"E. coli TOP10 cells [1]; ten times the MIC, early exponential cells, room temperature, c.f.u. counts, triplicate",significant reduction after 30 min
same,MIC,E. cloacae NRRL-B-425,2 µg/mL
same,MIC,Saccharomyces cerevisiae,>64 µg/mL
same,single-step resistance,E. coli ATCC 25922 [2],did not develop resistance
same,single-step resistance,E. coli ATCC 25922 [2]; listed as brevicidine,no resistant colonies were detected
same,resistance development during serial passaging,E. coli ATCC 25922 [3],did not develop resistance
same,MIC,Candida albicans,>64 µg/mL
same,growth kinetics of E. coli cells exposed to compound,E. coli TOP10 cells [4],grew at a reduced rate for 30 min
same,"MIC, Ec",[5],2 µg/mL
same,"MIC, Pa",[6],1 µg/mL
same,MIC,[7],>64 µg/mL
same,MIC values against Gram-negative bacteria,Gram-negative bacteria; 24 h,0.66 to 10.5 µM
same,MIC values against Gram-negative bacteria,Gram-negative bacteria; range over Gram-negative strains incl. P. aeruginosa and colistin-resistant E. coli,1 to 16 µg/mL
